Values quoted from earlier work as cited in patent US6977247B2, “Sequential therapy comprising a 20(S)-camptothecin and a pyrimidine base analog” (SuperGen, Inc., priority 2002, dated 2005).

Key:
[1] = test system: human colon cancer xenografts; conditions: mouse, in vivo
[2] = test system: various types of cancer, including primary cancer and metastasis; conditions: human, in vivo
[3] = test system: human tumor xenografts
[4] = administered intravenously; studies abandoned

For CC[C@@]1(O)C(=O)OCc2c1cc1n(c2=O)Cc2cc3c(N)cccc3nc2-1 [9AC, 9-Amino-20(S)-Camptothecin], the “anticancer activity against human colon cancer xenografts” value [1] is given as “high anticancer activity”.
For CC[C@@]1(O)C(=O)OCc2c1cc1n(c2=O)Cc2cc3c([N+](=O)[O-])cccc3nc2-1 [9NC, 9-nitrocamptothecin], the “tumors known to regress after exposure” value [2] is listed as “breast carcinoma, ovarian carcinoma, cholangiocarcinoma, monomyelocytic leukemia, and pancreatic carcinoma”, the “growth of human tumor xenografts” value ([3]; immunodeficient nude mice) is listed as “inhibited the growth” and the “regression of human tumors established as xenografts” value ([3]; nude mice) is listed as “induced regression”.
For CC[C@@]1(O)C(=O)OCc2c1cc1n(c2=O)Cc2cc3cc4c(cc3nc2-1)OCO4 [10, 2011 MD, 10, 2011-Methylendioxy-20(S)-Camptothecin], the “anticancer activity against human colon cancer xenografts” value [1] is given as “high anticancer activity”.
In the case of CC[C@@](O)(C(=O)[O-])c1cc2n(c(=O)c1CO)Cc1cc3ccccc3nc1-2.[Na+] [20(S)-camptothecin Na^+, sodium salt of 20(S)-camptothecin], the “potency in clinical trials” value [4] is listed as “low potency” and the “toxicity in clinical trials” value [4] is listed as “high toxicity”.
In the case of CC[C@@]1(O)C(=O)OCc2c1cc1n(c2=O)Cc2cc3ccccc3nc2-1 [20(S)-camptothecin], the solubility in water is given as “insoluble in water”.
